Measured values reported in patent US20130018010A1, “POLYMERIC CONJUGATES OF ADENINE NUCLEOSIDE ANALOGS” (ENZON PHARMACEUTICALS, INC., priority 2010, published 2013).

Columns and labels:
[1] = system: human melanoma cells (A375); test: Tumor growth inhibition in mice xenografted with human melanoma; assay type: in vivo; conditions: for tumor growth inhibition: 1 or 5 mg/kg/dose (toyocamycin equivalent) at day 1, 5, 9, 13, compared to toyocamycin i.v. 5 mg/kg/dose, FIG. 18; for tail vein necrosis: 1 or 5 mg/kg/dose at day 1, 5, 9, 13; for effectiveness in the treatment of melanoma: versus untreated, toyocamycin, or 54
Experimental: The antitumor efficacies of compounds 6, 10, and 54 evaluated in human melanoma xenografted mice. Xenograft tumors were established in mice by injecting human melanoma cells (A375). The mice were treated with toyocamycin i.v. at 5 mg/kg/dose, or compounds 6, 10, and 54 at 1 or 5 mg/kg/dose (based on the amount of toyocamycin) at day 1, 5, 9, and 13. Control group mice received saline solution.

[2] = Hydrolysis rate of PEG conjugates in rat plasma (HPLC); assay type: in vitro ADME; conditions: 37° C., disappearance of PEG derivative
Experimental: The rates of hydrolysis were obtained by employing a C18 reversed phase column (Jupiter®) using a gradient mobile phase consisting of (a) 0.05 M TFA buffer and (b) acetonitrile. A flow rate of 1 mL/min was used, and chromatograms were monitored using a UV detector at 260 nm for toyocamycin. For hydrolysis in plasma, the derivatives were dissolved in acetonitrile/MeOH at a concentration of 20 mg/mL. The solution was divided into vials with 100 μL and the solvent removed in vacuo. To the residue, 100 μL of plasma was added, then vortexed for 10 sec. The solutions were incubated at 37° C. for various periods of time. A mixture of methanol-acetonitrile (1:1, v/v, 400 μL) was added to a vial at the proper interval and the mixture was vortexed for 1 min, followed by filtration through […] filter membrane. An aliquot of 40 μL of the filtrate was injected into the HPLC. On the basis of the peak area, the amounts of native compound and PEG conjugates were estimated, and the half-life of each compound in different media was calculated using linear regression analysis from the disappearance of PEG derivative.
The rate of hydrolysis was measured by monitoring disappearance of polymer conjugates and appearance of the parent molecule by HPLC using the procedure for example as described in Example 4 in PBS and in rat plasma.

Row | Substance | tumor growth inhibition [1] | tail vein necrosis [1] | effectiveness in the treatment of melanoma [1] | t1/2 in rat plasma [2] [h]
1 | 40 k 4-Arm PEG-Carbamate-Aib-Toyocamycin [Compound 10] | inhibited tumor growth significantly compared to toyocamycin | observed in only one mouse | more effective in the treatment of melanoma than untreated, toyocamycin, or 54 | 4.1
2 | 40 k 4-Arm PEG-carbamate-Leu-Toyocamycin [Compound 6] | inhibited tumor growth significantly compared to toyocamycin | observed in only one mouse | more effective in the treatment of melanoma than untreated, toyocamycin, or 54 | 0.033
